Measured values taken from patent US7138361B2, “Herbicidal heterocycles” (E. I. du Pont de Nemours and Company, priority 2000, dated 2006).

Legend:
Format in all cases: in vivo
rice (Oryza saliva) [1] = assay: Test B flooded paddy test; conditions: Rate 1000 g/ha, scale of 0 to 100 where 0 is no effect and 100 is complete control, visually evaluated after 13 to 15 days
Procedure: (§1) At the same time, plants selected from these crop and weed species and also blackgrass (Alopecurus myosuroides), wheat (Triticum aestivum) and wild oat (Avena fatua) were treated with postemergence applications of test chemicals formulated in the same manner. Plants ranged in height from 2 to 18 cm (1- to 4-leaf stage) for postemergence treatments. Plant species in the flooded paddy test consisted of rice (Oryza saliva), smallflower flatsedge (Cyperus difformis), duck salad (Heteranthera limosa) and barnyardgrass (Echinochloa crus-galli) grown to the 2-leaf stage for testing. Treated plants and controls were maintained in a greenhouse for 13 to 15 days, after which time all species were compared to controls and visually evaluated. Plant response ratings, summarized in Table B, are based on a scale of 0 to 100 where 0 is no effect and 100 is complete control. A dash (-) response means no test result.

[2] = system: barnyardgrass (Echinochloa crus-galli); assay: Test B flooded paddy test; conditions: Rate 1000 g/ha, scale of 0 to 100 where 0 is no effect and 100 is complete control, visually evaluated after 13 to 15 days
Procedure: as §1

[3] = system: duck salad (Heteranthera limosa); assay: Test B flooded paddy test; conditions: Rate 1000 g/ha, scale of 0 to 100 where 0 is no effect and 100 is complete control, visually evaluated after 13 to 15 days
Procedure: as §1

[4] = system: Surinam grass (Brachiaria decumbens); assay: Test B postemergence; conditions: 13 to 15 days
In short: (§2)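 Preemergence: seeds planted and treated with test chemicals in non-phytotoxic solvent with surfactant; postemergence on plants 2–18 cm (1- to 4-leaf stage). Kept in greenhouse 13–15 days, then visually rated against controls on a 0 (no effect) to 100 (complete control) scale.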

[5] = system: velvetleaf (Abutilon theophrasti); assay: Test B postemergence; conditions: 13 to 15 days
In short: as §2

[6] = system: cocklebur (Xanthium strumarium); assay: Test B postemergence; conditions: 13 to 15 days
In short: as §2

corn (Zea mays) [7] = assay: Test B postemergence; conditions: 13 to 15 days
In short: as §2

[8] = system: giant foxtail (Setaria faberii); assay: Test B postemergence; conditions: 13 to 15 days
In short: as §2

[9] = system: morning glory (Ipomoea hederacea); assay: Test B postemergence; conditions: 13 to 15 days
In short: as §2

[10] = system: blackgrass (Alopecurus myosuroides); assay: Test B postemergence; conditions: 13 to 15 days
In short: as §2

[11] = system: wheat (Triticum aestivum); assay: Test B postemergence; conditions: 13 to 15 days
In short: as §2

[12] = system: pigweed (Amaranthus retroflexus); assay: Test B postemergence; conditions: 13 to 15 days
In short: as §2

[13] = system: barnyardgrass (Echinochloa crus-galli); assay: Test B postemergence; conditions: 13 to 15 days
In short: as §2

[14] = system: lambsquarters (Chenopodium album); assay: Test B postemergence; conditions: 13 to 15 days
In short: as §2

[15] = system: crabgrass (Digitaria sanguinalis); assay: Test B postemergence; conditions: 13 to 15 days
In short: as §2

wild oat (Avena fatua) = assay: Test B postemergence; conditions: 13 to 15 days
In short: as §2

rice (Oryza saliva) [16] = assay: Test C flooded paddy test; conditions: for Rice plant response rating: Flooded Paddy, scale 0 to 100, 0 no effect, 100 complete control; for Plant response rating, Rice: flooded paddy test, scale 0 to 100 (0 no effect, 100 complete control)
In short: (§3)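 Ratings come from visual comparison with control plants after 12 to 14 days in the greenhouse. Each species was at the 2-leaf stage when the flooded paddy was treated. Scores run from 0, meaning no effect, to 100, meaning complete control.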

[17] = system: smallflower flatsedge (Cyperus difformis); assay: Test C flooded paddy test; conditions: for Flatsedge plant response rating: Flooded Paddy, scale 0 to 100, 0 no effect, 100 complete control; for Plant response rating, Flatsedge: flooded paddy test, scale 0 to 100 (0 no effect, 100 complete control)
In short: as §3

[18] = system: barnyardgrass (Echinochloa crus-galli); assay: Test C flooded paddy test; conditions: for Barnyardgrass plant response rating: Flooded Paddy, scale 0 to 100, 0 no effect, 100 complete control; for Plant response rating, Barnyardgrass: flooded paddy test, scale 0 to 100 (0 no effect, 100 complete control)
In short: as §3

[19] = system: duck salad (Heteranthera limosa); assay: Test C flooded paddy test; conditions: for Ducksalad plant response rating: Flooded Paddy, scale 0 to 100, 0 no effect, 100 complete control; for Plant response rating, Ducksalad: flooded paddy test, scale 0 to 100 (0 no effect, 100 complete control)
In short: as §3

[20] = system: Surinam grass (Brachiaria decumbens); assay: Test B preemergence
In short: as §2

[21] = system: velvetleaf (Abutilon theophrasti); assay: Test B preemergence
In short: as §2

[22] = system: cocklebur (Xanthium strumarium); assay: Test B preemergence
In short: as §2

corn (Zea mays) [23] = assay: Test B preemergence
In short: as §2

[24] = system: giant foxtail (Setaria faberii); assay: Test B preemergence
In short: as §2

[25] = system: morning glory (Ipomoea hederacea); assay: Test B preemergence; conditions: preemergence; Rate 125 g/ha; scale of 0 to 100 where 0 is no effect and 100 is complete control; 13 to 15 days
In short: as §2

rice (Oryza saliva) [26] = assay: Test B preemergence
In short: as §2

[27] = system: pigweed (Amaranthus retroflexus); assay: Test B preemergence
In short: as §2

[28] = system: barnyardgrass (Echinochloa crus-galli); assay: Test B preemergence
In short: as §2

[29] = system: lambsquarters (Chenopodium album); assay: Test B preemergence
In short: as §2

[30] = system: crabgrass (Digitaria sanguinalis); assay: Test B preemergence
In short: as §2

[31] = system: smallflower flatsedge (Cyperus difformis); assay: Test B flooded paddy test; conditions: Rate 1000 g/ha, scale of 0 to 100 where 0 is no effect and 100 is complete control, visually evaluated after 13 to 15 days
Procedure: as §1

[32] = Rate 125 g/ha, scale 0 (no effect) to 100 (complete control)
[33] = Rate 500 g/ha, scale 0 to 100, 0 is no effect, 100 is complete control
[34] = Preemergence, Rate 500 g/ha, scale 0 to 100, 0 no effect, 100 complete control
[35] = preemergence, Rate 125 g/ha, scale of 0 to 100 where 0 is no effect and 100 is complete control, 13 to 15 days

CC(C)(C)c1ccn(C2CCN(c3ccc(F)c(Cl)c3)C2=O)n1 (stereo not shown) [Compound 46]
60: Barnyardgrass plant response rating ([18]; Rate 500 g/ha)
90: Plant response rating, Rice (rice (Oryza saliva) [1]) | Flatsedge plant response rating ([17]; Rate 250 g/ha) | Plant response rating, Flatsedge ([17]; Rate 125 g/ha)
70: Plant response rating, Ducksalad [3] | Plant response rating, Lambsquarters [14, 33]
50: Barnyardgrass plant response rating ([18]; Rate 250 g/ha) | Ducksalad plant response rating ([19]; Rate 500 g/ha)
40: Rice plant response rating (rice (Oryza saliva) [16]; Rate 500 g/ha)
100: Plant response rating, Barnyardgrass [2] | Flatsedge plant response rating ([17]; Rate 500 g/ha) | Plant response rating, Pigweed [27, 34] | Plant response rating, Pigweed [27, 35] | Plant response rating, Lambsquarters [29, 34] | Plant response rating, Lambsquarters [29, 35]
0: Plant response rating, Surinam grass [4, 32] | Plant response rating, Surinam grass [4, 33] | Plant response rating, Velvetleaf [5, 32] | Plant response rating, Velvetleaf [5, 33] | Plant response rating, Cocklebur [6, 32] | Plant response rating, Cocklebur [6, 33] | Plant response rating, Corn (corn (Zea mays) [7]; [32]) | Plant response rating, Corn (corn (Zea mays) [7]; [33]) | Plant response rating, Foxtail, Giant [8, 32] | Plant response rating, Foxtail, Giant [8, 33] | Plant response rating, Morningglory [9, 32] | Plant response rating, Morningglory [9, 33] | Plant response rating, Blackgrass [10, 32] | Plant response rating, Blackgrass [10, 33] | Plant response rating, Wheat [11, 32] | Plant response rating, Wheat [11, 33] | Plant response rating, Pigweed [12, 32] | Plant response rating, Pigweed [12, 33] | Plant response rating, Barnyardgrass [13, 32] | Plant response rating, Barnyardgrass [13, 33] | Plant response rating, Lambsquarters [14, 32] | Plant response rating, Crabgrass [15, 32] | Plant response rating, Crabgrass [15, 33] | Plant response rating, Wild Oat (wild oat (Avena fatua); [32]) | Plant response rating, Wild Oat (wild oat (Avena fatua); [33]) | Rice plant response rating (rice (Oryza saliva) [16]; Rate 250 g/ha) | Plant response rating, Rice (rice (Oryza saliva) [16]; Rate 62 g/ha) | Plant response rating, Rice (rice (Oryza saliva) [16]; Rate 125 g/ha) | Plant response rating, Barnyardgrass ([18]; Rate 62 g/ha) | Plant response rating, Ducksalad ([19]; Rate 62 g/ha) | Plant response rating, Ducksalad ([19]; Rate 125 g/ha) | Plant response rating, Surinam grass [20, 34] | Plant response rating, Surinam grass [20, 35] | Plant response rating, Velvetleaf [21, 34] | Plant response rating, Velvetleaf [21, 35] | Plant response rating, Cocklebur [22, 34] | Plant response rating, Cocklebur [22, 35] | Plant response rating, Corn (corn (Zea mays) [23]; [34]) | Plant response rating, Corn (corn (Zea mays) [23]; [35]) | Plant response rating, Foxtail, Giant [24, 34] | Plant response rating, Foxtail, Giant [24, 35] | Plant response rating, Morningglory [25] | Plant response rating, Rice (rice (Oryza saliva) [26]; [34]) | Plant response rating, Rice (rice (Oryza saliva) [26]; [35]) | Plant response rating, Barnyardgrass [28, 35] | Plant response rating, Crabgrass [30, 34] | Plant response rating, Crabgrass [30, 35]
20: Plant response rating, Barnyardgrass ([18]; Rate 125 g/ha) | Ducksalad plant response rating ([19]; Rate 250 g/ha)
80: Plant response rating, Flatsedge ([17]; Rate 62 g/ha) | Plant response rating, Barnyardgrass [28, 34]

COc1cccc(N2CCC(n3ccc(C(C)(C)C)n3)C2=O)c1 (stereo not shown) [Compound 57]
90: Plant response rating, Rice (rice (Oryza saliva) [1])
100: Plant response rating, Flatsedge [31] | Plant response rating, Barnyardgrass [2] | Plant response rating, Ducksalad [3]
